Results taken from patent US10155756B2, “Pyrazolo[1,5-A]pyridine compounds and use thereof” (GUANGZHOU INSTITUTES OF BIOMEDICINE AND HEALTH, CHINESE …, priority 2014, dated 2018).
Values after ≈ are worked out from the molar mass of the structure shown.

System: self-luminescent tuberculosis
Assay: microbe, parasite or virus in culture
Assay type: cell-based
Settings: Mycobacterium tuberculosis, 72 h; read-out: MIClux

Cc1ccn2nc(C)c(C(=O)NCc3ccc(Oc4ccc(OC(F)(F)F)cc4)cc3)c2c1 [TJ830153] and Cc1ccn2nc(C)c(C(=O)NCc3ccc(Oc4ccc(F)cc4)cc3)c2c1 [TJ830147, N-(4-(4-fluorophenoxy)benzyl)-2,5-dimethylpyrazolo [1,5-a] pyridine-3-carboxamide] cannot be ordered by MIC: less than 1 mg/L for the first, less than 1 mg/L for the second.

First: Cc1nn2ccc(C(F)(F)F)cc2c1C(=O)NCc1ccc(N2CCC(c3ccc(OC(F)(F)F)cc3)CC2)cc1 [TJ064995, 5-trifluoromethyl-2-methyl-N-(4-(4-(4-(trifluoromethoxy)phenyl)piperidine-1-yl)benzyl) pyrazolo [1,5-a] pyridine-3-carboxamide]
Second: CCc1ccn2nc(C)c(C(=O)NCc3ccc(N4CCC(c5ccc(OC(F)(F)F)cc5)CC4)cc3)c2c1 [TJ830082, 5-ethyl-2-methyl-N-(4-(4-(4-(trifluoromethoxy)phenyl)piperidine-1-substituted)benzyl) pyrazolo [1,5-a] pyridine-3-carboxamide]
The MIC of the first is higher: 1 to 10 mg/L (≈ 1.73 to 17.3 µM) for the first, less than 1 mg/L for the second.

First: O=C(NCc1ccc(N2CCC(c3ccc(OC(F)(F)F)cc3)CC2)cc1)c1cnn2ccc(Cl)cc12 [TJ170371, 5-chloro-N-(4-(4-(4-(trifluoromethoxy)phenyl)piperidine-1-yl)benzyl) pyrazolo [1,5-a] pyridine-3-carboxamide]
Second: CCCc1nn2ccc(Cl)cc2c1C(=O)NCc1ccc(N2CCC(c3ccc(OC(F)(F)F)cc3)CC2)cc1 [TJ830134]
The MIC of the first is higher: 1 to 10 mg/L (≈ 1.89 to 18.9 µM) for the first, less than 1 mg/L for the second.

First: Cc1nn2cccc(C)c2c1C(=O)NCc1ccc(N2CCC(c3ccc(OC(F)(F)F)cc3)CC2)cc1 [TJ064872, 2,4-dimethyl-N-(4-(4-(4-(trifluoromethoxy)phenyl)piperidine-1-yl)benzyl) pyrazolo[1,5-a] pyridine-3-carboxamide]
Second: CCOc1ccn2nc(C)c(C(=O)NCc3ccc(N4CCC(c5ccc(OC(F)(F)F)cc5)CC4)cc3)c2c1 [TJ830108, 5-methyl-2-ethoxy-N-(4-(4-(4-(trifluoromethoxy)phenyl)piperidine-1-substituted)benzyl) pyrazolo [1,5-a] pyridine-3-carboxamide]
The MIC of the first is higher: greater than 10 mg/L for the first, less than 1 mg/L for the second.

CCc1nn2ccc(Cl)cc2c1C(=O)NC(C)(C)c1ccc(N2CCC(c3ccc(OC(F)(F)F)cc3)CC2)cc1 [TJ064987, 5-chloro-2-ethyl-N-(2-(4-(4-(4-(trifluoromethoxy)phenyl)piperidine-1-yl)phenyl)propane-2-substituted) pyrazolo [1,5-a] pyridine-3-carboxamide] and CCc1nn2ccc(Cl)cc2c1C(=O)NC(C)c1ccc(N2CCC(c3ccc(OC(F)(F)F)cc3)CC2)cc1 (stereo not drawn) [TJ830070, 5-chloro-2-ethyl-N-(1-(4-(4-(4-(trifluoromethoxy)phenyl)piperidine-1-yl)phenyl)ethanol) pyrazolo [1,5-a] pyridine-3-carboxamide] cannot be ordered by MIC: greater than 10 mg/L for the first, greater than 10 mg/L for the second.

First: CCc1nn2ccc(Cl)cc2c1C(=O)NCCc1ccc(N2CCC(c3ccc(OC(F)(F)F)cc3)CC2)cc1 [TJ830128, 5-chloro-2-ethyl-N-(4-(4-(4-(trifluoromethoxy)phenyl)piperidine-1-yl)phenethyl) pyrazolo [1,5-a] pyridine-3-carboxamide]
Second: Cc1ccn2nc(C)c(C(=O)NCc3cn(-c4ccc(OC(F)(F)F)cc4)nn3)c2c1 [TJ830003]
The MIC of the first is lower: 1 to 10 mg/L (≈ 1.75 to 17.5 µM) for the first, greater than 10 mg/L for the second.

First: Cc1nn2ccccc2c1C(=O)NCc1ccc(C(F)(F)F)cc1 [TJ830069]
Second: Cc1ccn2nc(C)c(C(=O)NCc3ccc(-c4ccc(OC(F)(F)F)cc4)s3)c2c1 [TJ830132, 2,5-dimethyl-N-((5-(4-(trifluoromethoxy)phenyl)thiophene-2-yl)methyl) pyrazolo [1,5-a] pyridine-3-carboxamide]
The MIC of the first is higher: 1 to 10 mg/L (≈ 3 to 30 µM) for the first, less than 1 mg/L for the second.

With Cc1ccn2nc(C)c(C(=O)NCc3ccc(-c4ccc(OC(F)(F)F)cc4)cn3)c2c1 [TJ830133, 2,5-dimethyl-N-((5-(4-(trifluoromethoxy)phenyl)pyridine-2-yl)methyl) pyrazolo [1,5-a] pyridine-3-carboxamide] the MIC was less than 1 mg/L.
